We go through six molecules from US10597380B2, “Pyridazinone-based broad spectrum anti-influenza inhibitors” (Hoffmann-La Roche Inc., priority 2017, dated 2020).

The experiment has as its system Influenza A/WSN/33-Luciferase virus. Nature of the experiment: microbe, parasite or virus in culture. Format: cell-based. The following applies: A549, 72 h, luciferase signal three days later, read-out: IC50 antiviral activity (Luciferase reporter assay).
For `Cn1cncc(Nc2nn(-c3ccc(OC(F)(F)F)cc3)c(=O)c3ccccc23)c1=O` [Example 66, 4-[(1-methyl-6-oxo-pyrimidin-5-yl)amino]-2-[4-(trifluoromethoxy)phenyl]phthalazin-1-one], the IC50 (commonly the concentration needed to halve the response being measured) stood at 36 nM.
Next, `O=c1c(Nc2nn(-c3ccc(OC(F)(F)F)cc3)c(=O)c3c2CCC3)cccn1CCN1CC(O)C1` [Example 46, 1-[[1-[2-(3-hydroxyazetidin-1-yl)ethyl]-2-oxo-3-pyridyl]amino]-3-[4-(trifluoromethoxy)phenyl]-6,7-dihydro-5H-cyclopenta[d]pyridazin-4-one]: 33 nM.
Consider `Cn1cccc(Nc2nn(-c3ccc(OC(F)(F)F)cc3)c(=O)c3cc(N)ccc23)c1=O` [Example 142, 7-Amino-4-[(1-methyl-2-oxo-3-pyridyl)amino]-2-[4-(trifluoromethoxy)phenyl]phthalazin-1-one], for which the IC50 stood at 46 nM.
The result for `Cn1cccc(Nc2nn(-c3ccc(OC(F)(F)F)cc3)c(=O)c3c2CCC3)c1=O` [Example 28, 1-[(1-methyl-2-oxo-3-pyridyl)amino]-3-[4-(trifluoromethoxy)phenyl]-6,7-dihydro-5H-cyclopenta[d]pyridazin-4-one] reads 8 nM; that for `CN(C)C(=O)CCn1cccc(Nc2nn(-c3ccc(OC(F)(F)F)cc3)c(=O)c3ccccc23)c1=O` [Example 96, N,N-dimethyl-3-[2-oxo-3-[[4-oxo-3-[4-(trifluoromethoxy)phenyl]phthalazin-1-yl]amino]-1-pyridyl]propanamide], 42 nM; that for `Cn1cccc(Nc2nn(-c3ccc(C4(C)COC4)cc3)c(=O)c3ccccc23)c1=O` [Example 10, 2-[4-(3-methyloxetan-3-yl)phenyl]-4-[(1-methyl-2-oxo-3-pyridyl)amino]phthalazin-1-one], 259 nM.
